Measurements taken from ChEMBL document CHEMBL1201862, “PubChem BioAssay data set” (2004).
Values belong to the compound of their own block, whether it stands above or below them. The source made the active and inactive calls.

What was measured:
Cytochrome P450 2C9 = Cytochrome P450 2C9 (Homo sapiens, UniProt P11712)
Cytochrome P450 2C19 = Cytochrome P450 2C19 (Homo sapiens, UniProt P33261); assay: Cytochrome panel assay with activity outcomes. Panel member name: p450-cyp2c19 Compounds with AC50 equal or less than 10 uM are considered active; format: functional; details: read-out: AC50
Cytochrome P450 2C19, sequence (P33261 whole entry, the tested form may be a part): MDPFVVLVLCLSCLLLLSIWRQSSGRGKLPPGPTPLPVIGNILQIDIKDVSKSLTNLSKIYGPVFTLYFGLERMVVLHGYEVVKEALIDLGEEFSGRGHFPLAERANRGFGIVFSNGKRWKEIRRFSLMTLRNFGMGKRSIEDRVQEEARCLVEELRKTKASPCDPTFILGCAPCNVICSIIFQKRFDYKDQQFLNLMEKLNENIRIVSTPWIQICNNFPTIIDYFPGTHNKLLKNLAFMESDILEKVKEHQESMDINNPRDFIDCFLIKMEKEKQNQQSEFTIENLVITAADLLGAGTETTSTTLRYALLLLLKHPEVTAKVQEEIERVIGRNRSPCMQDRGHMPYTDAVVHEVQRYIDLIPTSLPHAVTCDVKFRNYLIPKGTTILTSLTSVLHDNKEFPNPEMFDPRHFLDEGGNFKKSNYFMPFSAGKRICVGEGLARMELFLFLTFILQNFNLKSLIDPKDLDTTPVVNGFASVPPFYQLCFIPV

[1] = ARNT/TACC3 interaction disruptors, potency, confirmation, biochemical, AlphaScreen, cherry-picked samples (AID 651703); format: functional, Homo sapiens;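 further: His-tagged ARNT PAS-B domain paired with GST-TACC3 E629A dimer coactivator fragment; potency of inhibitors that break up the complex and lower AlphaScreen signal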
[2] = target: Ras and Rab interactor 1/Tyrosine-protein kinase ABL1 (Homo sapiens, UniProt P00519+Q13671); format: functional;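 further: biochemical TR-FRET dose-response test measuring inhibition of binding between Rin1 and Abl proteins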
Ras and Rab interactor 1/Tyrosine-protein kinase ABL1, sequence (P00519 whole entry): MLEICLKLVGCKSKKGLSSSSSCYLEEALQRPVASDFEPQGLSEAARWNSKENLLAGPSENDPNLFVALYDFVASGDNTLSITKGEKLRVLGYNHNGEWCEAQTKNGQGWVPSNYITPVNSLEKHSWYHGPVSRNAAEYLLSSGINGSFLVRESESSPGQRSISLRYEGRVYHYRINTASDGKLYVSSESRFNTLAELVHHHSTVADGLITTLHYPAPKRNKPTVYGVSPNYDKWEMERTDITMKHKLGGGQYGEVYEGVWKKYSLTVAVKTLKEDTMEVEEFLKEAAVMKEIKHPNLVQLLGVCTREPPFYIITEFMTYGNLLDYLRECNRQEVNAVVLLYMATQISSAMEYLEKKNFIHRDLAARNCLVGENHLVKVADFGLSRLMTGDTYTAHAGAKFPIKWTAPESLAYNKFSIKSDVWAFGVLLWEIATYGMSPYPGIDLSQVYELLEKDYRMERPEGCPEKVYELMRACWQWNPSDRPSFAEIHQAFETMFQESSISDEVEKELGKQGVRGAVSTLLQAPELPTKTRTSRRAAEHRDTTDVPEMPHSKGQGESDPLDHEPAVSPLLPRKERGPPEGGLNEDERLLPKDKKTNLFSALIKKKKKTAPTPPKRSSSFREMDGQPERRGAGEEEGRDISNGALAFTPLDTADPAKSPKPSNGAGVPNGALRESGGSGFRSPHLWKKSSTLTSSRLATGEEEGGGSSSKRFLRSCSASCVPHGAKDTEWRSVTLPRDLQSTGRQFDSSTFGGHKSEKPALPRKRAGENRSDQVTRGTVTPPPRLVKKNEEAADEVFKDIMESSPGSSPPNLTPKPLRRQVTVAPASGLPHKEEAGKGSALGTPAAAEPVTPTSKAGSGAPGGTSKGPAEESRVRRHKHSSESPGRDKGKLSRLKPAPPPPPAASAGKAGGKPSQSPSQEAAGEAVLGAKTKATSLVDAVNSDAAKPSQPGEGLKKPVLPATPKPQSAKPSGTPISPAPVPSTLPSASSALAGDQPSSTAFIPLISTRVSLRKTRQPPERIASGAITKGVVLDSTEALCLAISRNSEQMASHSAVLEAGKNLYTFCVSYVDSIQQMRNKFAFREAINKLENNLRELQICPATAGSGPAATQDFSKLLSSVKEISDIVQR
Ras and Rab interactor 1/Tyrosine-protein kinase ABL1, sequence (Q13671 whole entry): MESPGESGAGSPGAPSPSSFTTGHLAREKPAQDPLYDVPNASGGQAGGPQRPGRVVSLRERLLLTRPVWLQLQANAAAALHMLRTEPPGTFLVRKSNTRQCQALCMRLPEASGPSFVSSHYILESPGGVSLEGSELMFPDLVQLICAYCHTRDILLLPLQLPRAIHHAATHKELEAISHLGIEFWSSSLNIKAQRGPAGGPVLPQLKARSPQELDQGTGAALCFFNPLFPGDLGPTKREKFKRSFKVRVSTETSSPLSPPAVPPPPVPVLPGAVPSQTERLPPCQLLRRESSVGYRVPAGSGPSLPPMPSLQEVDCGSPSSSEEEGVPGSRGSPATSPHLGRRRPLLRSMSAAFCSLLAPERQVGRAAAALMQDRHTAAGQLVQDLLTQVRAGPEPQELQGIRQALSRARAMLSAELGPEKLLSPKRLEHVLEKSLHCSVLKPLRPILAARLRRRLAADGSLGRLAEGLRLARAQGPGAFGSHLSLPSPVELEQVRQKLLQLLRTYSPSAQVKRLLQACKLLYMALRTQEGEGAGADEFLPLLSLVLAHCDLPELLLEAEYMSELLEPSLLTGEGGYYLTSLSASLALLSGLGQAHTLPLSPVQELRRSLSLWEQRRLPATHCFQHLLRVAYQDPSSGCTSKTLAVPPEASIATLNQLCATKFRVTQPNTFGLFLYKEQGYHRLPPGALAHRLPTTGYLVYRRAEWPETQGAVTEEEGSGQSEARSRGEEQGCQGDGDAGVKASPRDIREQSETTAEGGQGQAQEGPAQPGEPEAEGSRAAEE

Melanocortin receptor 4 = Melanocortin receptor 4 (Homo sapiens, UniProt P32245); format: functional, cell-based;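 further: Cell-based assay with luminescence read-out, confirmatory dose-response testing for agonist activity of biased ligands at MC4R; human U2OS cells with tagged receptor and beta-arrestin; potency of agonists that increase receptor coupling to beta-arrestin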
Melanocortin receptor 4, sequence (P32245 whole entry): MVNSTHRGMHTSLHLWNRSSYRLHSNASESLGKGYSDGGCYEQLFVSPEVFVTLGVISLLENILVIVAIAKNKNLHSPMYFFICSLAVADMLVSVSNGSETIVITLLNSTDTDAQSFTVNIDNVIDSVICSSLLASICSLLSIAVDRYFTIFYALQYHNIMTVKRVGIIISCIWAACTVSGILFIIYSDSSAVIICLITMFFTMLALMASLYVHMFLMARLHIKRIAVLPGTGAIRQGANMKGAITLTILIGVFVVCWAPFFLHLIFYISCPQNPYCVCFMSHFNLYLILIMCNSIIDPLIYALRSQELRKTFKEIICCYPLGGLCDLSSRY

[3] = inhibitors of intracellular T. cruzi replication, confirmation, NIH3T3 host cells, beta-gal luminescence (AID 2044); format: functional, cell-based;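 further: intracellular parasites grown in NIH/3T3 mouse fibroblasts as host cells; luminescent beta-galactosidase reporter signal from transgenic T. cruzi replicating inside host cells; inhibitors lower the luminescence signal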
[4] = target: Mitochondrial peptide methionine sulfoxide reductase (Bos taurus, UniProt P54149); assay: Absorbance-based biochemical high throughput dose response assay for activators of Methionine sulfoxide reductase A (MsrA).; format: functional
Mitochondrial peptide methionine sulfoxide reductase, sequence (P54149 whole entry): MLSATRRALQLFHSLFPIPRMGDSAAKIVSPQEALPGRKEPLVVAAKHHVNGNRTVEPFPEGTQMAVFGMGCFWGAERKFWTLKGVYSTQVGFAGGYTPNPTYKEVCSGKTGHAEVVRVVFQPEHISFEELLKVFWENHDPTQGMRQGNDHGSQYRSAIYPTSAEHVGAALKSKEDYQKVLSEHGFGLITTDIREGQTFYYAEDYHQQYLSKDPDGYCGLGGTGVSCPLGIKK

[5] = target: Heat shock protein HSP 90-alpha (Homo sapiens, UniProt P07900); format: functional, organism-based
[6] = cytotoxicity toward NIH3T3 fibroblasts, dose response, counter-screen, cell-based, ATP luminescence, mouse fibroblasts (AID 2010); format: functional;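 further: cells exposed to compound for about 90 hours before reading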
[7] = target: T1, Mannose-6-phosphate isomerase (Homo sapiens, UniProt P34949); assay: human PMI inhibitors, high substrate, primary screen, biochemical, fluorescence intensity, high mannose 6-phosphate (AID 1220)
T1 sequence (P34949 whole entry): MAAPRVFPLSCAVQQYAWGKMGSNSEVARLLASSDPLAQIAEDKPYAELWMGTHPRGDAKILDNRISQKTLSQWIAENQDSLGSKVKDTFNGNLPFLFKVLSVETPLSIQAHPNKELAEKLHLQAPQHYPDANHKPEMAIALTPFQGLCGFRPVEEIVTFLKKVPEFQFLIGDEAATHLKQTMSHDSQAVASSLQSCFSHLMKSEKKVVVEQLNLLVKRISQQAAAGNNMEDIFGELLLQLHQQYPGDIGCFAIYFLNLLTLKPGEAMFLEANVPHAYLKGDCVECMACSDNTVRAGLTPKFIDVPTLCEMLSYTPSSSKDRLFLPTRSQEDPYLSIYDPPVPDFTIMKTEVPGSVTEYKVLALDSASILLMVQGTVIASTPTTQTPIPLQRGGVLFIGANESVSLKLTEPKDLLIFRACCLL

[8] = target: T2, Low molecular weight phosphotyrosine protein phosphatase (Homo sapiens, UniProt P24666); format: functional; details: read-out: IC50_Mean
T2 sequence (P24666 whole entry): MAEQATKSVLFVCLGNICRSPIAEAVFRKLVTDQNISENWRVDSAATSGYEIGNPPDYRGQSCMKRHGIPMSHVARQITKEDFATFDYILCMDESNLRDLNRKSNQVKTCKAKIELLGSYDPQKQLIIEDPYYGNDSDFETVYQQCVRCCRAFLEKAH

Cytochrome P450 3A4 = Cytochrome P450 3A4 (Homo sapiens, UniProt P08684);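 further: CYP3A4 tested as one member of a cytochrome P450 panel screen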
Cytochrome P450 3A4, sequence (P08684 whole entry): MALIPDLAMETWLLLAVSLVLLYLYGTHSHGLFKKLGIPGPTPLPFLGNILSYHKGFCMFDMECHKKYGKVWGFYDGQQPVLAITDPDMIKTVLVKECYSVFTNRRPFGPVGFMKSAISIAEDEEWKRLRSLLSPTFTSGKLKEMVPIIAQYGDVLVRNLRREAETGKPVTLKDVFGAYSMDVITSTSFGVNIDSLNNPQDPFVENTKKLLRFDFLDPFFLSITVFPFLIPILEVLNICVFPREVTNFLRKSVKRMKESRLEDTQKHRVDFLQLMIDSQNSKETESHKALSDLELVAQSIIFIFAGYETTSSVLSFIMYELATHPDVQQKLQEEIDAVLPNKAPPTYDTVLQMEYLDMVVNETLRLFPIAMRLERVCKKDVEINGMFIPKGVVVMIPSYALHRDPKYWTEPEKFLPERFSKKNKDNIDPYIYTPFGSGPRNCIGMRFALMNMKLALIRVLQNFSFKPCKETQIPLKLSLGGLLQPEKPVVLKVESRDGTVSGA

Cytochrome P450 2D6 = Cytochrome P450 2D6 (Homo sapiens, UniProt P10635);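 further: CYP2D6 member of a cytochrome P450 panel assay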
Cytochrome P450 2D6, sequence (P10635 whole entry): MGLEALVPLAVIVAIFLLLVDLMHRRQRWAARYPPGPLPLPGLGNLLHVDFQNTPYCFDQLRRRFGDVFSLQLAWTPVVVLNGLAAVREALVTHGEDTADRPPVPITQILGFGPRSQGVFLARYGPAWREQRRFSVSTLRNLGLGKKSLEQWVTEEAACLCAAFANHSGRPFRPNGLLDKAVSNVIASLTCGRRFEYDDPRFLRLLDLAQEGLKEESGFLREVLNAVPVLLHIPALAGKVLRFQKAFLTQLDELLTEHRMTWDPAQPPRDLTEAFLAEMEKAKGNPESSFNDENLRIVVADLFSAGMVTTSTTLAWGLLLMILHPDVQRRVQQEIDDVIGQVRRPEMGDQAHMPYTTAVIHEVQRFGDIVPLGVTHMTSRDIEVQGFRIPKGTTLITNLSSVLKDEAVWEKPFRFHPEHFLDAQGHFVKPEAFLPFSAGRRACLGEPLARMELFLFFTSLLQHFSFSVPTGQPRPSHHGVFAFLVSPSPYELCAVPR

[9] = target: T2, Low molecular weight phosphotyrosine protein phosphatase; format: functional; details: read-out: IC50_Mean; remark: listed apart in the source
[10] = target: Aryl hydrocarbon receptor (Homo sapiens, UniProt P35869); details: Potency;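 further: confirmatory quantitative high-throughput screen measuring activation of the AhR signaling pathway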
Aryl hydrocarbon receptor, sequence (P35869 whole entry): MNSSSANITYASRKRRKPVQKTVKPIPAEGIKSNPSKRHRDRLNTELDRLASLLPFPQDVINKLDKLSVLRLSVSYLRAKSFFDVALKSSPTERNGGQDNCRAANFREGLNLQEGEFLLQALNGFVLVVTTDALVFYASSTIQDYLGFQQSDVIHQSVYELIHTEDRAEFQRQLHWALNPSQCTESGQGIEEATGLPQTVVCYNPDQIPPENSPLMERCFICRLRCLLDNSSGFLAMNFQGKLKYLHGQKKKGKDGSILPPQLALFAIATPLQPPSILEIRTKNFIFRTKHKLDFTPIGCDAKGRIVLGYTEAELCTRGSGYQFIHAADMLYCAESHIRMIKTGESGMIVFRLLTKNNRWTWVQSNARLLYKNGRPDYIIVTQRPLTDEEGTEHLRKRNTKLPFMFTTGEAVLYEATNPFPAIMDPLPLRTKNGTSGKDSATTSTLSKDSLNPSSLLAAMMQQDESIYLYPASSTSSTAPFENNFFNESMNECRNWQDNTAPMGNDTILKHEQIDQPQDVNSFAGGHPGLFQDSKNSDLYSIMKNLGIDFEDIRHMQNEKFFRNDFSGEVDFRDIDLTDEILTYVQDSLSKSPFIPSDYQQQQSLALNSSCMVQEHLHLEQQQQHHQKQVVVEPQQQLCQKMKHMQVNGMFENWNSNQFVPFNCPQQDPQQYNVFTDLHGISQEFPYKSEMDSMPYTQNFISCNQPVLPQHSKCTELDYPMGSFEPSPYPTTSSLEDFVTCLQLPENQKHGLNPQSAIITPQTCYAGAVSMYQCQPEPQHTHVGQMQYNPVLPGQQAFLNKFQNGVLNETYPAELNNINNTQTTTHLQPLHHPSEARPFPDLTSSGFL

SMILES: CC(C)c1ccc(O)c(NC(=O)c2nc[nH]n2)c1
- AC50 (Cytochrome P450 2C9): 20 µM (inconclusive)
- AC50 (Cytochrome P450 2C19): 25.1 µM (inconclusive)
- AC50 [1]: 118 µM (active)

SMILES: O=[N+]([O-])c1ccc(/C=N/c2cccc3ccccc23)s1
- EC50 [3]: 2.73 µM (active)
- EC50 [4]: > 104 µM (inactive)
- AC50 [5]: 7.99 µM (active)
- EC50 [6]: > 60 µM (not active)
- IC50 [7]: > 50 µM (not active)

SMILES: CCSC(=O)N(CC)C1CCCCC1 [CYCLOATE]
- AC50 [10]: 0.794 µM (inconclusive)

The next lines start with the values.

- IC50 [2]: 35.2 µM (inactive)
SMILES: CCC(c1nc2ccccc2c(=O)n1CCCn1ccnc1)N1C(=O)c2ccccc2C1=O (stereo not given)

- EC50 (Melanocortin receptor 4): > 89.2 µM (inactive)
SMILES: Cc1cc(C)nc(Nc2nc(C(N)Cc3ccc(C(F)(F)F)cc3)cs2)n1 (stereo not given)

- IC50 [8]: 8.37 µM (active)
- AC50 (Cytochrome P450 3A4): 1 µM (inconclusive)
- AC50 (Cytochrome P450 2D6): 17.8 µM (inconclusive)
- IC50 [9]: 25.1 µM (inactive)
SMILES: c1ccc(-c2nc(NCc3cccnc3)c3ccccc3n2)cc1
